Marks after values point to notes of the source that are not given here.
Assays:
[1] = SOD activity, xanthine/xanthine oxidase with cytochrome C as acceptor (Example 2); format: biochemical; settings: relative to C7 (C7 = 100)
Method: Superoxide dismutase (SOD) activity was assayed by following the inhibition of the reduction of an electron acceptor molecule in the presence of the free-radical generating system xanthine/xanthine oxidase (McCord et al. (1973) Superoxide and Superoxide Dismutase in “Oxidases and Related Redox Systems, vol. I, King et al. eds., University Park press, Baltimore, pp. 51-76). The assay mixture consisted of 50 mM sodium phosphate, pH 7.8, 120 μM xanthine, 0.2 units/ml xanthine oxidase, with acceptor molecule and salen manganese compound, as indicated. Assays were conducted at 27±0.2° C. using a water-jacketed cell holder in a Beckman DU7400 spectrophotometer. In most cases, oxidized cytochrome c, at 0.13 mg/ml, was employed as acceptor and its reduction was monitored spectrophotometrically at 550 nm. In some experiments, nitroblue tetrazolium (NBT), at 80 μM, was substituted for cytochrome c as the acceptor. NBT reduction was also monitored at 550 nm. An estimated extinction coefficient for NBT reduction, 20,800 M^−1cm^−1, determined empirically by exhaustive reduction of NBT in the reaction mixture described above, was employed where indicated. […] Conversion of xanthine to urate was calculated using ε290's of […] for urate and 4050 M^−1cm^−1 for xanthine. […] For each compound, at least four different concentrations were tested in duplicate.

[2] = Peroxidase activity, H2O2-dependent oxidation of ABTS (Example 2); format: biochemical; settings: relative to C7 (C7 = 100)
Method: Peroxidase activity was assayed by monitoring the hydrogen peroxide-dependent oxidation of 2,2′-azino-bis(3-ethylbenzthiazoline-6) sulfonic acid (ABTS) spectrophotometrically. Standard assay mixtures consisted of 50 mM sodium phosphate, pH 8.1, 0.9% sodium chloride, 0.5 mM ABTS, and H2O2 and salen manganese complex as indicated. Where indicated, 50 mM sodium phosphate buffers of pH 6.0 or pH 7.1 were substituted. Assays were conducted at 27±0.2° C. ABTS oxidation was monitored at 740 or 500 nm to eliminate interference by the salen manganese complexes, many of which absorb in the vicinity of the λmax of oxidized ABTS, and to avoid absorbance values that exceeded the linear range of the spectrophotometer. The amount of oxidized ABTS was estimated using an Δε740 of 20,300 M^−1cm^−1 or an Δε500 of 3400 M^−1cm^−1 calculated based upon the published molar extinction coefficient oat 405 nm (36,800).
(§1) Catalase and peroxidase activities were assayed as described in Example 2. Catalase assays contained 10 μM salen-manganese complex and 10 mM hydrogen peroxide. Peroxidase assays contained 10 μM salen-manganese complex and 0.2 mM hydrogen peroxide. Glucose-glucose oxidase toxicity assays were performed using human dermal fibroblasts as described in Example 2.

[3] = Catalase activity, conversion of H2O2 to oxygen, polarographic oxygen electrode (Example 2); format: biochemical; settings: relative to C7 (C7 = 100)
Method: Catalase activity was assayed by monitoring the conversion of H2O2 to oxygen using a Clark-type polarographic oxygen electrode. The apparatus consisted of a Mini Clark Style electrode, a 600 μl Oxygen Uptake Chamber, and a Chemical Microsensor system, all obtained from Diamond General Corporation (Ann Arbor, Mich.). The electrode was calibrated by immersion in nitrogen- or air-equilibrated buffers using a Dual Chamber Calibration Cell (Diamond General,. Corp.). Catalase reaction mixtures consisted of 50 mM sodium phosphate, pH 8.1, 0.9% sodium chloride, and salen manganese complex and H2O2 at the indicated concentrations. The temperature of the water-jacketed reaction chamber, as well as the calibration buffers, was maintained at 25±0.1° C. Data were collected at 1 sec intervals and stored-on a MacIntosh II computer using data acquisition hardware and software by Strawberry Tree, Inc. (Sunnyvale, Calif.). Dissolved oxygen concentrations were calculated as described previously (Del Rio et al. (1977) Anal. Biochem. 80: 409) based on a value of 2.5×10^−4 M oxygen for air-saturated buffer at 25° C. Linearity of the dissolved oxygen measurements within the experimental range was continued by determining the amount of oxygen generated from known quantities of H2O2 during exhaustive treatment with bovine liver catalase. Stock solutions of H2O2 were prepared by diluting a commercial 30% H2O2 solution in water and the H2O2 concentrations in these stocks were determined by absorbance at 240 nm, using a molar extinction coefficient of 44 (Stadtman, E R. et al. (1990) Proc. Natl. Acad. Sci. USA 87: 384). […] In the absence of salen manganese complex, H2O2 alone typically produced an early, relatively slow increase in signal. The slope of this increased signal was not proportional to H2O2 concentration (for example in one experiment, 1 and 10 Mm H2O2 yielded apparent rates of 12 and 14 μM oxygen per min, respectively) and may be due to an electrode artifact. […] Where presented, initial rates were calculated by determining the slope of the linear portion of time dependent plots of oxygen generation, usually comprising the first five seconds of the reaction. Unless otherwise indicated, these were corrected by subtracting the rate obtained with H2O2 alone. Where presented, endpoint oxygen generated was calculated from time-dependent plots, such as those shown in FIG. 14, as the difference between the baseline oxygen concentration immediately prior to substrate addition and the maximal oxygen concentration achieved during the course of the reaction. All reactions subjected to these calculations were run for a sufficient time to ensure that oxygen generation had ceased.
as §1

[4] = tested on: isolated iron-overloaded rat hearts; experiment: Isolated iron-overloaded rat hearts submitted to ischemia and reperfusion (function and electron microscopy)
Method: Rats received an intramuscular injection of 0.25 ml of an iron-dextran solution (100 g iron hydroxide, 99 g dextran, water up to 1 l) every third day during a 5-week period to achieve a significant iron overload in cardiac tissue. At the end of this treatment, rats were anesthetized with sodium pentobarbital (40 mg/kg) and heparin (1,000 IU/kg) was administered via a femoral vein. Hearts were then removed and rapidly perfused through the aorta according to the technique described by Langendorff [Langendorff, O., Pflügers Arch. 61: 291, 1895] at a constant flow rate of 11 ml/minute. The perfusion fluid was a modified Krebs-Henseleit buffer containing (in mmol/l): NaCl 118, KCl 5.9, NaHCO3 25, MgCl2 1.2, NaH2PO4 0.6, CaCl2 2.4, Glucose […]. pH was maintained at 7.4±0.05 when the perfusion medium was saturated with O2—CO2 (95%-5%) at 37° C. The perfusion apparatus was fully thermostated such that the temperature of the perfusion medium was 37.0±0.5° C. when it reached the aorta. An ultra-thin balloon was inserted in the left ventricle immediately after the initiation of aortic perfusion and was inflated so as to obtain an end-diastolic pressure of 5 mm Hg. A 15 minute stabilization period was initiated immediately following balloon placement. At the end of this period, systolic and diastolic ventricular pressures and heart beat rate (HR) were recorded through a pressure transducer linked to the ventricular balloon. Left Ventricular Developed Pressure (LVDP) was calculated by the difference between systolic and diastolic pressure and the product HR×LVDP was taken as an index of oxygen consumption. Hearts were then subjected to a 15 minute total global normothermic ischemia, followed by 15 minutes of reperfusion with the perfusion medium used initially. During this 15 minute reperfusion, heart rate, and diastolic and systolic pressures were monitored. Early ventricular fibrillations were analyzed 1 min. after the start of the reperfusion.
Three experimental groups were studied.
After the 15 minute reperfusion, 3 hearts in each group were prepared for electron microscopy by perfusion with 2.5% glutaraldehyde. Ultra-thin slices (500-600 Å thickness) were examined.
Mitochondria were classified into Type A (normal), Type B (swollen, unbroken), and Type C (ruptured membranes). Sarcomeres were classified into Type A (normal) and Type B (contacted and/or necrosis). The results are expressed as percentages.

[5] = 1 minute after reperfusion, DMTU 10 mM, C7 50 μM
[6] = 15 minutes after reperfusion, DMTU 10 mM, C7 50 μM
[7] = Before ischemia, DMTU 10 mM, C7 50 μM
[8] = electron microscopy after 15 minute reperfusion

Row | Catalase endpt. [3] | Catalase rate [3] | Compound | Peroxidase [2] | other results
1 | – | – | COc1cc(OC)c2c(c1)[O][Mn]([Cl])[O]c1cc(OC)cc(OC)c1C=NCCN=C2 [Compound C39] | – | SOD [1]: 27
2 | 493 | 272 | [Cl][Mn]1[O]c2ccccc2C=Nc2cccnc2N=Cc2ccccc2[O]1 [Compound C44] | 48 | –
3 | 830 | 465 | COc1cccc2c1[O][Mn]([Cl])[O]c1c(cccc1OC)C=Nc1ncccc1N=C2 [Compound C46] | 20 | –
4 | 398 | 343 | CC(=O)[O][Mn]1[O]c2ccccc2C=Nc2ccccc2N=Cc2ccccc2[O]1 [Compound C47] | 101 | –
5 | 287 | 174 | COc1cccc2c1[O][Mn]([O]C(C)=O)[O]c1c(cccc1OC)C=NC1CCCCC1N=C2 (centres unmarked) [Compound C50] | 170 | –
6 | 33 | 73 | CC(=O)[O][Mn]1[O]c2ccccc2C=NCC(C)(C)CN=Cc2ccccc2[O]1 [Compound C52] | 0 | –
7 | – | – | [F][Mn]1[O]c2ccccc2C=NCCN=Cc2ccccc2[O]1 [Compound C54] | 116 | SOD [1]: 75
8 | – | – | [Br][Mn]1[O]c2ccccc2C=NCCN=Cc2ccccc2[O]1 [Compound C55] | 101 | SOD [1]: 178
9 | – | – | [Cl][Fe]1[O]c2ccccc2C=NCCN=Cc2ccccc2[O]1 [Compound C57] | – | SOD [1]: 33
10 | – | – | C1=NCCN=Cc2ccccc2[O][Ni][O]c2ccccc21 [Compound C59] | 0 | –
11 | – | – | COc1cc(Br)c2c(c1)C=NCCN=Cc1cc(OC)cc(Br)c1[O][Mn]([O]C(C)=O)[O]2 [Compound C69] | 167 | –
12 | – | – | CC(=O)[O][Mn]1[O]c2c(O)cccc2C=NCCN=Cc2cccc(O)c2[O]1 [Compound C71] | – | SOD [1]: 75
13 | – | – | Oc1ccc2c(c1)[O][Mn]([Cl])[O]c1cc(O)ccc1C=NCCN=C2 [Compound C72] | – | SOD [1]: 58
14 | – | – | CC(=O)[O][Mn]1[O]c2cc(O)ccc2C=NCCN=Cc2ccc(O)cc2[O]1 [Compound C73] | – | SOD [1]: 61
15 | – | – | CC(=O)[O][Mn]1[O]c2ccc(O)cc2C=NCCN=Cc2cc(O)ccc2[O]1 [Compound C74] | – | SOD [1]: 65
16 | – | – | CC(=O)[O][Mn]1[O]c2c(F)cccc2C=Nc2cccnc2N=Cc2cccc(F)c2[O]1 [Compound C75] | 0 | –
17 | 159 | 427 | COc1cc(Br)c2c(c1)C=Nc1ccccc1N=Cc1cc(OC)cc(Br)c1[O][Mn]([O]C(C)=O)[O]2 [Compound C76] | 23 | –
18 | – | – | CC(=O)[O][Mn]1[O]c2ccc(Cl)cc2C=Nc2cccnc2N=Cc2cc(Cl)ccc2[O]1 [Compound C77] | 0 | –
19 | 22 | 42 | CC(=O)[O][Mn]1[O]c2ccc3ccccc3c2C=Nc2ccccc2N=Cc2c(ccc3ccccc23)[O]1 [Compound C79] | 0 | –
20 | 24 | 34 | COc1cccc2c1[O][Mn]([O]C(C)=O)[O]c1c(cccc1OC)C=NCCCN=C2 [Compound C80] | 0 | –
21 | 870 | 493 | COc1cccc2c1[O][Mn]([Cl])[O]c1c(cccc1OC)C=Nc1ccccc1N=C2 [Compound C81] | 83 | –
22 | 756 | 345 | CC(=O)[O][Mn]1[O]c2c3cccc2OCCOCCOCCOc2cccc(c2[O]1)C=Nc1ccccc1N=C3 [Compound C82] | 59 | –
23 | 52 | 42 | CC(=O)[O][Mn]1[O]c2ccccc2CNCCNCc2ccccc2[O]1 [Compound C83] | 74 | –
24 | 51 | 31 | [Cl][Mn]1[O]c2ccccc2CNCCNCc2ccccc2[O]1 [Compound C84] | 77 | –
25 | – | – | COc1ccc2c(c1)C(C)=NCCN=C(C)c1cc(OC)ccc1[O][Mn]([O]C(C)=O)[O]2 [Compound C87] | 20 | –
26 | – | – | COc1ccc2c(c1)[O][Mn]([O]C(C)=O)[O]c1cc(OC)ccc1C(C)=NCCN=C2C [Compound C88] | 0 | –
27 | – | – | COc1ccc2c(c1)[O][Mn]([O]C(C)=O)[O]c1cc(OC)ccc1C(c1ccccc1)=NCCN=C2c1ccccc1 [Compound C89] | 0 | –
28 | – | – | CNC(=S)NC [DMTU, dimethylthiourea] | – | DP [4, 5]: 37.2 ± 10.0 mm Hg; HR [4, 5]: 91 ± 10 beats/min; HR × LVDP [4, 5]: 3.5 ± 1.2 ×10.3; SP [4, 5]: 62 ± 9 mm Hg; VF, number of hearts exhibiting episodes of ventricular fibrillation [4, 5]: 3/8; DP [4, 6]: 27.8 ± 9.4 mm Hg; HR [4, 6]: 226 ± 18 beats/min; HR × LVDP [4, 6]: 9.4 ± 2.0 ×10.3; SP [4, 6]: 58 ± 6 mm Hg; DP [4, 7]: 4.7 ± 0.3 mm Hg; HR [4, 7]: 280 ± 10 beats/min; HR × LVDP [4, 7]: 24.1 ± 0.6 ×10.3; SP [4, 7]: 97 ± 4 mm Hg; Mitochondria Type A (normal) [4, 8]: 14.3* %; Mitochondria Type B (swollen, unbroken) [4, 8]: 19.5%; Mitochondria Type C (ruptured membranes) [4, 8]: 66.2%; Sarcomeres Type A (normal) [4, 8]: 13.7+ %; Sarcomeres Type B (contacted and/or necrosis) [4, 8]: 86.3+ %

Reference: US7582786B2, “Synthetic catalytic free radical scavengers useful as antioxidants for prevention and therapy of disease” (Eukarion Inc., priority 1996, dated 2009)
